Measurements reported in patent US20240025907A1, “QUINAZOLINE PAN-KRas INHIBITORS” (Mirati Therapeutics, Inc., priority 2022, published 2024).
Where two headings read alike, the source gives them in different places.

Columns and labels:
Type in all cases: cell-based
[1] = system: KRas-mediated Phosphorylation of ERK in H460 cells; assay: Cisbio HTRF pERK assay, H460 cells; settings: Homo sapiens; for inhibition at 0.1 µM: NCI-H460, H460 cells, single point at 100 nM
[2] = system: KRas-mediated Phosphorylation of ERK in H727 cells; assay: Cisbio HTRF pERK assay, H727 cells; settings: for inhibition at 0.1 µM: NCI-H727, single point at 100 nM; for IC50: 3 hrs compound, read-out: Inhibition (HTRF IC50 nM) of KRas-mediated Phosphorylation of ERK, H727
[3] = system: KRas-mediated Phosphorylation of ERK in H358 cells; assay: Cisbio HTRF pERK assay, H358 cells; settings: for inhibition at 0.1 µM: NCI-H358, H358 cells, single point at 100 nM; for IC50: H358 cells, 3 hrs compound, read-out: Inhibition (HTRF IC50 nM) of KRas-mediated Phosphorylation of ERK, H358
[4] = system: KRas-mediated Phosphorylation of ERK in HCT116 cells; assay: Cisbio HTRF pERK assay, HCT116 cells; settings: Homo sapiens; for inhibition at 0.1 µM: HCT-116, HCT116 cells, single point at 100 nM
[5] = system: KRas-mediated Phosphorylation of ERK in AsPC-1 cells; assay: Cisbio HTRF pERK assay, AsPC-1 cells; settings: for inhibition at 0.1 µM: ASPC1, single point at 100 nM; for IC50: 3 hrs compound, read-out: Inhibition (HTRF IC50 nM) of KRas-mediated Phosphorylation of ERK, AsPC-1
[6] = system: KRas-mediated Phosphorylation of ERK in A549 cells; assay: Cisbio HTRF pERK assay, A549 cells; settings: for inhibition at 0.1 µM: A549, A549 cells, single point at 100 nM; for IC50: A549 cells, 3 hrs compound, read-out: Inhibition (HTRF IC50 nM) of KRas-mediated Phosphorylation of ERK, A549

SMILES	inhibition at 0.1 µM [1] [%]	inhibition at 0.1 µM ([2]; Homo sapiens) [%]	inhibition at 0.1 µM ([3]; Homo sapiens) [%]	inhibition at 0.1 µM [4] [%]	inhibition at 0.1 µM ([5]; Homo sapiens) [%]	inhibition at 0.1 µM ([6]; Homo sapiens) [%]	also measured
CCc1c(F)ccc2cc(O)cc(-c3c(F)cc4c(N5CCCn6nc(C(=O)N7CCN(C)CC7)cc6C5)nc(OC[C@@]56CCCN5C[C@H](F)C6)nc4c3F)c12 [Example 76, (5-(7-(8-ethyl-7-fluoro-3-hydroxynaphthalen-1-yl)-6,8-difluoro-2-(((2R,7aS)-2-fluorohexahydro-1H-pyrrolizin-7a-yl)methoxy)quinazolin-4-yl)-5,6,7,8-tetrahydro-4H-pyrazolo[1,5-a][1,4]diazepin-2-yl)(4-methylpiperazin-1-yl)methanone]	31	43	90	16	90	42	
CCc1c(F)ccc2cc(O)cc(-c3ccc4c(N5CCCn6nc(C(=O)N(C)C)c(Cl)c6C5)nc(OC[C@@]56CCCN5C[C@H](F)C6)nc4c3F)c12 [Example 74, 3-chloro-5-(7-(8-ethyl-7-fluoro-3-hydroxynaphthalen-1-yl)-8-fluoro-2-(((2R,7aS)-2-fluorohexahydro-1H-pyrrolizin-7a-yl)methoxy)quinazolin-4-yl)-N,N-dimethyl-5,6,7,8-tetrahydro-4H-pyrazolo[1,5-a][1,4]diazepine-2-carboxamide]		78	98	38	99	72	
CCc1c(F)ccc2cc(O)cc(-c3c(F)cc4c(N5CCCC6(CCO6)C5)nc(OC[C@@]56CCCN5C[C@H](F)C6)nc4c3F)c12 (stereo partly drawn) [Example 77, 4-(6,8-difluoro-2-(((2R,7aS)-2-fluorotetrahydro-1H-pyrrolizin-7a(5H)-yl)methoxy)-4-(1-oxa-6-azaspiro[3.5]nonan-6-yl)quinazolin-7-yl)-5-ethyl-6-fluoronaphthalen-2-ol]	86	66	96	45	87	82	
CCc1c(F)ccc2cc(O)cc(-c3ccc4c(N5CCCn6nc(C(=O)N(C)C)c(C)c6C5)nc(OC[C@@]56CCCN5C[C@H](F)C6)nc4c3F)c12 [Example 75, 5-(7-(8-ethyl-7-fluoro-3-hydroxynaphthalen-1-yl)-8-fluoro-2-(((2R,7aS)-2-fluorohexahydro-1H-pyrrolizin-7a-yl)methoxy)quinazolin-4-yl)-N,N,3-trimethyl-5,6,7,8-tetrahydro-4H-pyrazolo[1,5-a][1,4]diazepine-2-carboxamide]		73	98	29	95	79	
N#Cc1c(N)sc2c(F)ccc(-c3c(Cl)cc4c(N5C[C@@H]6C(=O)NC(=O)[C@@H]6C5)nc(OC[C@@]56CCCN5C[C@H](F)C6)nc4c3F)c12 [Example 200, 2-amino-4-(6-chloro-4-((3aR,6aS)-4,6-dioxohexahydropyrrolo[3,4-c]pyrrol-2(1H)-yl)-8-fluoro-2-(((2R,7aS)-2-fluorotetrahydro-1H-pyrrolizin-7a(5H)-yl)methoxy)quinazolin-7-yl)-7-fluorobenzo[b]thiophene-3-carbonitrile]							IC50 ([1]; NCI-H460, 3 h, H460 cells, 3 hrs compound, read-out: Inhibition (HTRF IC50 nM) of KRas-mediated Phosphorylation of ERK, H460): 2760 nM; IC50 ([2]; Homo sapiens, NCI-H727, 3 h): 4730 nM; IC50 ([3]; Homo sapiens, NCI-H358, 3 h): 1680 nM; IC50 ([4]; HCT-116, 3 h, HCT116 cells, 3 hrs compound, read-out: Inhibition (HTRF IC50 nM) of KRas-mediated Phosphorylation of ERK, HCT116): 4560 nM; IC50 ([5]; Homo sapiens, ASPC1, 3 h): 2740 nM; IC50 ([6]; Homo sapiens, A549, 3 h): > 10000 nM
N#Cc1c(N)sc2c(F)ccc(-c3c(Cl)cc4c(N5CCCn6nnc(Cl)c6C5)nc(OC[C@@]56CCCN5C[C@H](F)C6)nc4c3F)c12 (single isomer, unassigned) [Example 197]							IC50 [2]: 12 nM; IC50 [3]: 3 nM; IC50 [5]: 2 nM; IC50 [6]: 10 nM
N#Cc1c(N)sc2c(F)ccc(-c3c(Cl)cc4c(N5CCCn6nnc(Cl)c6C5)nc(OC[C@@]56CCCN5C[C@H](F)C6)nc4c3F)c12 (single isomer, unassigned) [Example 196]							IC50 [2]: 2820 nM; IC50 [3]: 472 nM; IC50 [5]: 531 nM; IC50 [6]: 2420 nM
CCc1c(F)ccc2cc(O)cc(-c3c(F)cc4c(N5CCCC6(CCO6)C5)nc(OCC5(CN(C)C)CC5)nc4c3F)c12 (stereo not shown) [Example 82, 4-(2-((1-((dimethylamino)methyl)cyclopropyl)methoxy)-6,8-difluoro-4-(1-oxa-6-azaspiro[3.5]nonan-6-yl)quinazolin-7-yl)-5-ethyl-6-fluoronaphthalen-2-ol]	63	34	80	24	72	33	
CCc1c(F)ccc2cc(O)cc(-c3c(F)cc4c(N5CCCn6nc(C(=O)N(C)C)c(Cl)c6C5)nc(OC[C@@]56CCCN5C[C@H](F)C6)nc4c3F)c12 [Example 78, 3-chloro-5-(7-(8-ethyl-7-fluoro-3-hydroxynaphthalen-1-yl)-6,8-difluoro-2-(((2R,7aS)-2-fluorohexahydro-1H-pyrrolizin-7a-yl)methoxy)quinazolin-4-yl)-N,N-dimethyl-5,6,7,8-tetrahydro-4H-pyrazolo[1,5-a][1,4]diazepine-2-carboxamide]	81	75	96	75	98	94	
CCc1c(F)ccc2cc(O)cc(-c3ccc4c(N5CCCn6nc(C(=O)N7CCOCC7)c(Cl)c6C5)nc(OC[C@@]56CCCN5C[C@H](F)C6)nc4c3F)c12 [Example 73, (3-chloro-5-(7-(8-ethyl-7-fluoro-3-hydroxynaphthalen-1-yl)-8-fluoro-2-(((2R,7aS)-2-fluorohexahydro-1H-pyrrolizin-7a-yl)methoxy)quinazolin-4-yl)-5,6,7,8-tetrahydro-4H-pyrazolo[1,5-a][1,4]diazepin-2-yl)(morpholino)methanone]		71	97	48	97	71	
CCc1c(F)ccc2cc(O)cc(-c3c(F)cc4c(N5CCC[C@@](C)(O)C5)nc(OCC5(CN(C)C)CC5)nc4c3F)c12 [Example 11, (R)-1-(2-((1-((dimethylamino)methyl)cyclopropyl)methoxy)-7-((R)-8-ethyl-7-fluoro-3-hydroxynaphthalen-1-yl)-6,8-difluoroquinazolin-4-yl)-3-methylpiperidin-3-ol]		49			91		
CCc1c(F)ccc2cc(O)cc(-c3c(F)cc4c(N5CCCn6nc(C(=O)NC)c(C)c6C5)nc(OC[C@@]56CCCN5C[C@H](F)C6)nc4c3F)c12 [Example 81, 5-(7-(8-ethyl-7-fluoro-3-hydroxynaphthalen-1-yl)-6,8-difluoro-2-(((2R,7aS)-2-fluorohexahydro-1H-pyrrolizin-7a-yl)methoxy)quinazolin-4-yl)-N,3-dimethyl-5,6,7,8-tetrahydro-4H-pyrazolo[1,5-a][1,4]diazepine-2-carboxamide]	26		98	32		62	
C[C@@]1(O)COCCN(c2nc(OC[C@@]34CCCN3C[C@H](F)C4)nc3c(F)c(-c4ccc(F)c5sc(N)c(C#N)c45)c(Cl)cc23)C1 (atropisomer, axis not shown; (aS)) [Example 193, 2-amino-4-((S)-6-chloro-8-fluoro-2-(((2R,7aS)-2-fluorotetrahydro-1H-pyrrolizin-7a(5H)-yl)methoxy)-4-((S)-6-hydroxy-6-methyl-1,4-oxazepan-4-yl)quinazolin-7-yl)-7-fluorobenzo[b]thiophene-3-carbonitrile]							IC50 [2]: 686 nM; IC50 [5]: 414 nM
